Test system: spontaneously hypertensive rats (SHR)
Assay: Antihypertensive activity test: blood pressure and heart rate of spontaneously hypertensive rats (SHR)
Format: in vivo, rat
Conditions: 200 mg/kg; for SHR blood pressure (SBP), time after administration 1 h / SHR blood pressure (SBP), time after administration 2 h / SHR blood pressure (SBP), time after administration 3 h / SHR blood pressure (SBP), time after administration 4 h / SHR blood pressure (SBP), time after administration 5 h / SHR blood pressure (SBP), time after administration 6 h / Blood pressure (SBP, mmHg) After administration / Heart rate (beat/min) After administration / Blood pressure (SBP, mmHg) Baseline / Heart rate (beat/min) Baseline: n = 8; for SHR heart rate, time after administration 0 h / SHR heart rate, time after administration 1 h / SHR heart rate, time after administration 2 h / SHR heart rate, time after administration 3 h / SHR heart rate, time after administration 4 h / SHR heart rate, time after administration 5 h / SHR heart rate, time after administration 6 h: N = 8; for Blood pressure (SBP, mmHg) After administration / Heart rate (beat/min) After administration: after administration (6 h M ± SD); for Heart rate Difference (beat/min): after administration minus baseline (6 h); for Blood pressure Difference mmHg: baseline minus after administration (6 h); for Blood pressure (SBP, mmHg) Baseline / Heart rate (beat/min) Baseline: before administration, M ± SD
Procedure: Tested Drugs: Compounds of the Invention. The dosage of all compound was uniformly set to 200 mg/kg.
In the test, changes in the blood pressure before and after the administration were detected, and compared with the basic value, a reduction of SBP ≥20 mmHg after administration was judged as effective antihypertensive effects; and at the same time, changes in the heart rate before and after the administration were detected.
Heart rate was expressed as mean±standard deviation (x±s). The changes of heart rate before and after the administration were compared by using Two-sample equal variance paired t test, and P<0.05 was regarded as the standard of statistically significant difference.

| SMILES | SBP Difference before and after administration, 1 h [mmHg] | SHR blood pressure (SBP), time after administration 1 h [mmHg] | SBP Difference before and after administration, 2 h [mmHg] | SHR blood pressure (SBP), time after administration 2 h [mmHg] | SBP Difference before and after administration, 3 h [mmHg] | SHR blood pressure (SBP), time after administration 3 h [mmHg] | SBP Difference before and after administration, 4 h [mmHg] | SHR blood pressure (SBP), time after administration 4 h [mmHg] | SBP Difference before and after administration, 5 h [mmHg] | SHR blood pressure (SBP), time after administration 5 h [mmHg] | SBP Difference before and after administration, 6 h [mmHg] | SHR blood pressure (SBP), time after administration 6 h [mmHg] | further results |
| --- | --- | --- | --- | --- | --- | --- | --- | --- | --- | --- | --- | --- | --- |
| CCc1cccc([C@@H](O)CO)c1 [Compound 1-1] | 14 | 176 ± 12.4 | 22 | 168 ± 12.0 | 29 | 161 ± 13.1 | 24 | 166 ± 11.4 | 20 | 170 ± 11.9 | 14 | 186 ± 10.1 | SBP Difference before and after administration, 0 h (0 h): 0 mmHg |
| CCc1cccc([C@H](O)CO)c1 [Compound 1-2] | 10 | 176 ± 6.39 | 22 | 164 ± 4.50 | 25 | 161 ± 9.15 | 23 | 163 ± 13.7 | 12 | 174 ± 15.9 | 8 | 178 ± 8.78 |  |
| [2H]OCC(O[2H])c1cccc(CC)c1 (stereo not drawn) [Compound 1-3] | 18 | 168 ± 6.39 | 21 | 165 ± 4.50 | 23 | 163 ± 9.15 | 23 | 163 ± 13.7 | 22 | 164 ± 15.9 | 18 | 168 ± 8.78 |  |
| OCC(O)c1ccccc1 (stereo not drawn) [Compound 2] | 16 | 169 ± 6.39 | 18 | 167 ± 4.50 | 19 | 166 ± 9.15 | 19 | 166 ± 13.7 | 20 | 165 ± 15.3 | 15 | 170 ± 8.77 |  |
| Cc1cccc(C(O)CO)c1 (stereo not drawn) [Compound 3] | 18 | 180 ± 11.6 | 10 | 178 ± 10.9 | 11 | 177 ± 13.9 | 8 | 180 ± 15.80 | 2 | 186 ± 16.0 | 2 | 186 ± 17.7 |  |
| CCc1ccc(C(O)CO)cc1 (stereo not drawn) [Compound 4] | 3 | 182 ± 11.6 | 7 | 178 ± 10.8 | 8 | 177 ± 10.9 | 5 | 180 ± 15.80 | 1 | 184 ± 16.0 | −1 | 186 ± 17.7 | SHR heart rate, time after administration 0 h (0 h): 345 ± 42.2 beat/min; Heart rate Difference before and after administration, 1 h: 2 beat/min; SHR heart rate, time after administration 1 h: 347 ± 42.6 beat/min; Heart rate Difference before and after administration, 2 h: 4 beat/min; SHR heart rate, time after administration 2 h: 349 ± 49.7 beat/min; Heart rate Difference before and after administration, 3 h: 4 beat/min; SHR heart rate, time after administration 3 h: 349 ± 48.3 beat/min; Heart rate Difference before and after administration, 4 h: 0 beat/min; SHR heart rate, time after administration 4 h: 345 ± 45.1 beat/min; Heart rate Difference before and after administration, 5 h: −6 beat/min; SHR heart rate, time after administration 5 h: 338 ± 39.7 beat/min; Heart rate Difference before and after administration, 6 h: −4 beat/min; SHR heart rate, time after administration 6 h: 341 ± 46.9 beat/min; Blood pressure (SBP, mmHg) After administration: 181 ± 13.2 mmHg; Heart rate (beat/min) After administration: 346 ± 43.4 beat/min; Heart rate Difference (beat/min): 1 beat/min; Blood pressure Difference mmHg: 3 mmHg; Blood pressure (SBP, mmHg) Baseline: 184 ± 14.7 mmHg; Heart rate (beat/min) Baseline: 345 ± 42.2 beat/min |
| OCC(O)c1cccc(Br)c1 (stereo not drawn) [Compound 6] | 5 | 184 ± 10.9 | 9 | 180 ± 12.4 | 9 | 180 ± 7.80 | 6 | 183 ± 6.56 | 7 | 182 ± 8.29 | 1 | 188 ± 13.2 |  |
| CC(C)c1cccc(C(O)CO)c1 (stereo not drawn) [Compound 9] | 2 | 192 ± 11.6 | 6 | 188 ± 12.1 | 17 | 177 ± 12.3 | 14 | 180 ± 12.85 | 10 | 184 ± 16.0 | 8 | 186 ± 17.8 |  |
| CC(=O)c1ccc(C(O)CO)cc1 (stereo not drawn) [Compound 10] | 6 | 186 ± 9.54 | 10 | 182 ± 7.36 | 13 | 179 ± 4.07 | 9 | 183 ± 7.65 | 7 | 185 ± 5.64 | 2 | 190 ± 6.54 |  |
| Cc1ccc(C(O)CO)cc1 (stereo not drawn) [Compound 12] | 3 | 184 ± 10.6 | 5 | 182 ± 10.4 | 4 | 183 ± 9.90 | 9 | 178 ± 6.61 | 5 | 182 ± 7.25 | 3 | 184 ± 12.1 | SHR heart rate, time after administration 0 h (0 h): 333 ± 44.0 beat/min; Heart rate Difference before and after administration, 1 h: −5 beat/min; SHR heart rate, time after administration 1 h: 328 ± 47.6 beat/min; Heart rate Difference before and after administration, 2 h: 8 beat/min; SHR heart rate, time after administration 2 h: 342 ± 46.9 beat/min; Heart rate Difference before and after administration, 3 h: 15 beat/min; SHR heart rate, time after administration 3 h: 348 ± 53.2 beat/min; Heart rate Difference before and after administration, 4 h: 3 beat/min; SHR heart rate, time after administration 4 h: 336 ± 54.5 beat/min; Heart rate Difference before and after administration, 5 h: −3 beat/min; SHR heart rate, time after administration 5 h: 331 ± 51.0 beat/min; Heart rate Difference before and after administration, 6 h: 3 beat/min; SHR heart rate, time after administration 6 h: 336 ± 52.7 beat/min; Blood pressure (SBP, mmHg) After administration: 181 ± 8.80 mmHg; Heart rate (beat/min) After administration: 336 ± 49.5 beat/min; Heart rate Difference (beat/min): 3 beat/min; Blood pressure Difference mmHg: 6 mmHg; Blood pressure (SBP, mmHg) Baseline: 187 ± 11.9 mmHg; Heart rate (beat/min) Baseline: 333 ± 44.0 beat/min |

From patent US12180146B2, “Antihypertensive polyol compound and derivative thereof” (TAO PHARMACEUTICAL (SUZHOU) CO., LTD, priority 2020, dated 2024)
